Assay results as given in patent publication US20050004044A1, “Use of orsaponin [3beta, 16beta, 17 alpha-trihydroxycholost-5-en-22-one 16-0-(2-0-4-methoxybenzoyl-beta-D-xylopyranosyl)-(1->3)-(2-0-acetyl-alpha-L-arabinopyranoside)] or OSW-1 and its derivatives for cancer therapeutics” (priority 2003, published 2005).
Values joined by “and” are separate entries in the source; they are usually repeats but may differ in a detail not shown here. Equal values may be shown once. Read-outs that look alike come from different tables or passages of the source.

Experiments:
Raji cells (lymphoma) = assay: MTT cell growth inhibition, Raji; format: cell-based, human; details: 72 h
Protocol: FIG. 2. Effect of Orsaponin (OSW-1) on cell growth in two human cancer cell lines including a leukemia and a lymphoma cell line. HL-60 (leukemia) and Raji cells (lymphoma) in exponentially growing phase were treated with the indicated concentrations of OSW-1 for 72 hours. Cell growth inhibition was measured by MTT assay.
Cells and Cell Lines. Various cancer cell lines were used including the human leukemia cell lines HL-60 and ML-1 cells; human lymphoma cell line Raji; human pancreatic cancer cells AsPC-1; and human ovarian cancer cells SKOV3; human colon cancer cells HCT116; as well as isolated CLL cells from patients; and lymphocytes from normal donors. Cells were grown and maintained as per protocols known in the art using appropriate cell culture media and supplements.
1. MTT Assays. For these assays either cancer cell lines were used. […] After the indicated number of days (usually 3 days or 72 hours) of exposure to OSW-1, cell survival was assessed by the addition of the MTT dye to the wells. […] Survival of cells under orsaponin treatment was evaluated as a percentage of control cell growth. […]
Anticancer activities of Orsaponin and 17-deoxyorsaponin were examined in human leukemia cells (ML-1) and human lymphoma cells (Raji). Cells were incubated with various concentrations of Orsaponin and 17-deoxyorsaponin for 72 h, and cell growth inhibition was measured by MTT assay.

HL-60 cells = assay: Mitochondrial transmembrane potential (rhodamine-123), HL-60; format: cell-based, human; details: HL-60, 0.5 nM
Protocol: FIG. 10. Effect of Orsaponin (OSW-1) on Mitochondrial transmembrane potential HL-60 cells. The parental HL-60 line and its mutant with mitochondrial respiration defect, clone C6F, were incubated with 0.5 nM OSW-1 for the indicated times. Change in mitochondrial transmembrane potential was measured by cytometry analysis, using rhodamine-123 as a potential-sensitive fluorescent dye.
3. Analysis of the Mitochondrial Transmembrane Potential. To evaluate the role of mitochondrial respiration in the cytotoxicity of OSW-1, changes in the potential of mitochondrial membrane were analyzed. Following the treatment of cells with OSW-1 for different time periods, cells were incubated with rhodamine-123 which is a potential-sensitive dye. Cytometric analysis was used to record changes in mitochondrial potential. […]
The effect of OSW-1 on mitochondrial transmembrane potential in HL-60 cells and C6F cells was also analyzed by incubating the cells with 0.5 nM OSW-1 for the 4, 16 and 24 hours. Change in mitochondrial transmembrane potential was measured by flow cytometry analysis, using rhodamine-123 as a potential-sensitive fluorescent dye and are depicted in FIG. 10.

[1] = system: human ovarian cancer SKOV3 cells; assay: Survival of nude mice inoculated i.p. with SKOV3; format: in vivo; details: i.p. 10 μg/kg/day, 5 days/week for two weeks
Protocol: FIG. 12. Nude mice were inoculated with human ovarian cancer SKOV3 cells (2×10^6/mouse, i.p., 10 mice/group). Drug treatment started on day 6 after tumor inoculation. OSW-1 was given by i.p. injection, 10 μg/kg/day, 5 days/week for two weeks.
Thus, nude mice were inoculated with human ovarian cancer SKOV3 cells at a concentration of 2×10^6/mouse, by the intraperitoneal route (i.p.) with 10 mice/group. Treatment with OSW-1 was started on day 6 after tumor inoculation. The control group was treated with saline. OSW-1 was given by i.p. injection, 10 μg/kg/day, 5 days/week for two weeks. […] When severe tumor burden and moribund signs appeared, euthanasia for the affected animal was performed according to IACUC standards.

[2] = 5-day intravenous toxicity study in mice; format: in vivo, ICR mice; details: for Early Deaths: 15 dosed; for NOAEL at 5 days: ICR
Protocol: To assess the toxicity of orsaponin of the present invention, a 5-day intravenous study with Orsaponin in mice was conducted. […] Five mice from each group were scheduled to be sacrificed 3, 14, and 42 days after the last dose was administered.
Tissues (liver with gall bladder, kidneys, heart with aorta, lungs, spleen, skeletal muscle, brain, pituitary gland, eyes, pancreas, stomach, duodenum, jejunum, ileum, cecum, colon, mesenteric lymph node, salivary gland, mandibular lymph node, thymus, adrenal glands, larynx/pharynx/tongue, thyroid gland, parathyroid, trachea, esophagus, skin, mammary gland (females only), prostate, seminal vesicles, urinary bladder, testes, epididymides, ovary, uterus, cervix, femur/knee joint, sternum, bone marrow, and gross lesions) were processed for microscopic evaluation.
Individual animal organ weight was also measured. Calculation of percent of control using the relative weight of the individual organs per 100 grams of the terminal body weight (TBW) is included below in Tables 8 and 9. A change of greater than 20% difference was considered toxicologically important, and/or a clear dose response relationship.

[3] = system: pancreatic cancer (Panco-2) cells; assay: MTT cell growth inhibition, Panco-2; format: cell-based; details: Mus musculus, Panco-2, 72 h
Protocol: 1. MTT Assays. For these assays either cancer cell lines were used. Alternatively, mononuclear cells from peripheral blood samples of CLL patients or normal donors were separated by Ficoll Hipaque fractionation and resuspended in DMEM complete medium. Malignant cells from various human cell lines (usually at 5×10^4 cells/ml) or mononuclear cells from peripheral blood of leukemia patients and healthy donors (1×10^6 cells/ml) were incubated in either αMEM or RPMI 1640 with or without various concentrations of OSW-1 in the range of 0-10 nM. Each experimental condition was done in triplicate. After the indicated number of days (usually 3 days or 72 hours) of exposure to OSW-1, cell survival was assessed by the addition of the MTT dye to the wells. The MTT dye changes its color depending on the presence of live cells in the well. Survival of cells under orsaponin treatment was evaluated as a percentage of control cell growth. Alternatively, one can also use the dye trypan-blue which penetrates dead cells thereby allowing one to count live cells under the microscope and estimating percentage survival.
The effect of Orsaponin and 17-deoxyorsaponin in pancreatic cancer cells was also assessed. […] Cell growth inhibition was measured by MTT assay.

[4] = male mice, early deaths day 4, individual animals, listed as Orsaponin

COc1ccc(C(=O)OC2C(OC3C(O)COC(O[C@H]4C[C@H]5[C@@H]6CC=C7C[C@@H](O)CC[C@]7(C)[C@H]6CC[C@]5(C)[C@@]4(O)[C@H](C)C(=O)CCC(C)C)C3OC(C)=O)OCC(O)C2O)cc1 (stereo partly drawn) [OSW-1, 3β, 16β, 17 α-trihydroxycholost-5-en-22-one 16-O-(2-O-4-methoxybenzoyl-β-D-xylopyranosyl)-(1->3)-(2-O-acetyl-α-L-arabinopyranoside)]
IC50 (Raji cells (lymphoma)): < 0.5 nM
change in mitochondrial transmembrane potential (HL-60 cells; 16-24 h): substantial loss of mitochondrial transmembrane potential
change in mitochondrial transmembrane potential (HL-60 cells; 4 h): did not cause a significant change in mitochondrial transmembrane potential
Survival % ([1]; 30 days): 100%
Survival % ([1]; 60 days): 50%
Early Deaths ([2]; Females, 10 μg/kg/day): 0
Early Deaths ([2]; Females, 20 μg/kg/day): 0
Early Deaths ([2]; Females, 30 μg/kg/day): 0
Early Deaths ([2]; Females, 40 μg/kg/day): 0
Spleen Relative Weight ([2]; Females, 14-Day, 20 μg/kg/day): 109% of Control
Liver Relative Weight ([2]; Females, 14-Day, 40 μg/kg/day): 105% of Control
Kidney Relative Weight ([2]; Females, 42-Day, 20 μg/kg/day): 116% of Control
Kidney Relative Weight ([2]; Females, 42-Day, 40 μg/kg/day): 105% of Control
Early Deaths ([2]; Males, 10 μg/kg/day): 0
Early Deaths ([2]; Males, 20 μg/kg/day): 7
Early Deaths ([2]; Males, 40 μg/kg/day): 15
Kidney Relative Weight ([2]; Males, 3-Day, 10 μg/kg/day): 103% of Control
Kidney Relative Weight ([2]; Males, 3-Day, 20 μg/kg/day): 116% of Control
TBW ([2]; Males, 14-Day, 10 μg/kg/day): 107% of Control
mortality or morbidity ([2]; female mice, 10, 20 or 40 μg/kg/day i.v.): no mortality or morbidity was observed
NOAEL at 5 days ([2]; female, mouse, in vivo, females, read-out: no-observed-adverse-effect level (NOAEL)): 0.04 mg/kg/day
no-observed-effect level (NOEL) ([2]; females): 40 µg/kg/day
NOEL ([2]; male mice): No NOEL
mortality and morbidity ([2]; male mice, 20 and 40 μg/kg/day, after the fourth injection): mortality and morbidity was observed
Hemolysis Sl, Md, Mk ([2]; male mice, early deaths day 4, individual animals (IDs 30xx, 40xx), 30 and 40 μg/kg/day groups, listed as Orsaponin): Md (6×) and Mk and Sl
ALK PHOS [2, 4]: 1896 IU/L and 1746 IU/L and 2290 IU/L and 3302 IU/L and >4500 IU/L and >1500 IU/L (2×) and 2001 IU/L and >2842 IU/L and 3339 IU/L and 4992 IU/L and 4326 IU/L
ALT [2, 4]: 1058 IU/L and 486 IU/L and >8800 IU/L (2×) and >4400 IU/L (2×) and 2060 IU/L and >6600 IU/L (2×) and 5642 IU/L and 4950 IU/L and 5596 IU/L
AST [2, 4]: 1794 IU/L and 1167 IU/L and >8800 IU/L (3×) and 3306 IU/L and >6600 IU/L (2×) and 4341 IU/L and >4400 IU/L and 5106 IU/L and 5864 IU/L
Alb [2, 4]: 4.2 gm/dl and 3 gm/dl and 3.4 gm/dl and 2.4 gm/dl (2×) and 3.8 gm/dl (2×) and 3.3 gm/dl and 3.9 gm/dl and 2.8 gm/dl and 2.7 gm/dl
CHLORIDE [2, 4]: 103 mmol/L and 110 mmol/L (3×) and 116 mmol/L and 105 mmol/L and 109 mmol/L and 107 mmol/L
Glob [2, 4]: 2.3 gm/dl and 1.8 gm/dl (2×) and 6.6 gm/dl and 1.4 gm/dl (2×) and 1.6 gm/dl and 1.5 gm/dl and 2.1 gm/dl and 1.2 gm/dl and 1 gm/dl
T. PROTEIN [2, 4]: 6.5 gm/dl and 4.8 gm/dl (2×) and 10 gm/dl and 3.8 gm/dl and 5.4 gm/dl and 5.6 gm/dl and 6 gm/dl (2×) and 4 gm/dl and 4.1 gm/dl and 3.4 gm/dl
NOAEL at 5 days ([2]; male, mouse, in vivo, males, 5 daily doses, based on pathology, read-out: NOAEL): 0.01 mg/kg/day
compound-related findings ([2]; mouse, in vivo): No Orsaponin-related findings were observed
interpretation of AST, ALT and total bilirubin ([2]; mouse, in vivo): severe liver disease
reversibility of hepatocellular lesion ([2]; mouse, in vivo): completely reversible
IC50 [3]: 0.1 nM
